Measured values reported in patent publication US10590422B2, “Anticancer therapeutic intervention” (PHYZAT BIOPHARMACEUTICALS, LDA., priority 2017, dated 2020).

Tests used:
ASCT2 = target: T1, ASCT2 (Homo sapiens, UniProt Q15758); experiment: Sodium-dependent [^14C]-L-alanine uptake in carcinoma cells, sensitivity to unlabelled L-alanine; format: cell-based; conditions: epithelial carcinoma cells; 3 mM unlabelled L-alanine; FIGS. 3E-3H
T1 construct: recognized the presence of LAT1 and ASCT2 in all cancer cell lines; endogenous in cells
T1 sequence (Q15758 1-541): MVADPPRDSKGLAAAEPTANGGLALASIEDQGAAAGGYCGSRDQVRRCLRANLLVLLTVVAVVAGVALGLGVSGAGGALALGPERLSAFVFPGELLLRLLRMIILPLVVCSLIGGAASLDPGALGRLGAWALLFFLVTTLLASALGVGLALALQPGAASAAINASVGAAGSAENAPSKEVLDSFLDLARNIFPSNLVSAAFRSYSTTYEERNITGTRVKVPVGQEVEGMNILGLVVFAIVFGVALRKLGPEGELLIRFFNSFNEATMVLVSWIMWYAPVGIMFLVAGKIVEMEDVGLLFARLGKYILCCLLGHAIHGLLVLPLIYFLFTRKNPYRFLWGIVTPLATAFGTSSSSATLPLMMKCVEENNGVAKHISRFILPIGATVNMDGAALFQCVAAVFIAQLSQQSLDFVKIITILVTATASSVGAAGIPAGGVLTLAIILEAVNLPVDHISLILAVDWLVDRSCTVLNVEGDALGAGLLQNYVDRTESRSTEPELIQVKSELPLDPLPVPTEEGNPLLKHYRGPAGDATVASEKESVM
Description: (§1) Cells were plated in 24-well plates (Sarstedt, Germany) and grown until confluence was reached. On the day of the experiment, Cell culture medium was aspirated and cells were preincubated for 15 min in Hanks' medium (ChCl 140 mM, KCl 5 mM, MgSO4.7H2O 0.8 mM, K2HPO4 0.33 mM, KH2PO4 0.44 mM, MgCl2.6H2O 1 mM, CaCl2) 0.025 mM, Tris-HCl 9.75 mM, pH 7.4). Uptake was initiated by the addition of Hanks' medium with 0.25 μM [^14C]-L-alanine in the absence and in the presence of 3 mM unlabeled L-alanin. During preincubation and incubation cells were continuously shaken and maintained at 37° C. Uptake was terminated after 1 min by rapid removal of uptake solution by means of a vacuum pump connected to a Pasteur pipette, followed by a rapid wash with Hanks' medium. Subsequently, cells were solubilized in 0.1% vol/vol Triton X-100 (dissolved in 5 mM Tris-HCl, pH 7.4), and radioactivity was measured by liquid scintillation counting.

LAT1 = target: T2, LAT1 (Homo sapiens, UniProt Q01650); experiment: Sodium-independent [^14C]-L-leucine uptake in carcinoma cells, sensitivity to unlabelled L-leucine; format: cell-based; conditions: epithelial carcinoma cells; 3 mM unlabelled L-leucine; FIGS. 3A-3D
T2 construct: recognized the presence of LAT1 and ASCT2 in all cancer cell lines; endogenous in cells
Description: as §1, with “experiment, cell” for “experiment, Cell”, “medium (NaCl” for “medium (ChCl”, “by” for “by the”, “μM [^14C]-L-leucine” for “μM [^14C]-L-alanine”, “unlabeled L-leucine.” for “unlabeled L-alanin.”

T2 sequence (Q01650 whole entry): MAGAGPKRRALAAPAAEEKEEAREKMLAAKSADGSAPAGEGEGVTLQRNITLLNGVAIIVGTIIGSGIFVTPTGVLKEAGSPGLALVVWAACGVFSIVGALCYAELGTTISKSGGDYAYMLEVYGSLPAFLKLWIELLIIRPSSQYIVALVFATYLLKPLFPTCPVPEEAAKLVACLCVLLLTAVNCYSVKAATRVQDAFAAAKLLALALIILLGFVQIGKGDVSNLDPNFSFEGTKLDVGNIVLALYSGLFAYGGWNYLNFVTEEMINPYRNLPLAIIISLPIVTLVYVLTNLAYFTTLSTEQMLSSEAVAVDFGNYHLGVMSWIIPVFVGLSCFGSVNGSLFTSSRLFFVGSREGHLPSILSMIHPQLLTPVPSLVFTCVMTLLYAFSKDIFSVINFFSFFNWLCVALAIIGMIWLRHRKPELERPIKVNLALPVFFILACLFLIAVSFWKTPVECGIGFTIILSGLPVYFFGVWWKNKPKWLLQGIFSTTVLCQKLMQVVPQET
T2 sequence (P08195 102-630 partner): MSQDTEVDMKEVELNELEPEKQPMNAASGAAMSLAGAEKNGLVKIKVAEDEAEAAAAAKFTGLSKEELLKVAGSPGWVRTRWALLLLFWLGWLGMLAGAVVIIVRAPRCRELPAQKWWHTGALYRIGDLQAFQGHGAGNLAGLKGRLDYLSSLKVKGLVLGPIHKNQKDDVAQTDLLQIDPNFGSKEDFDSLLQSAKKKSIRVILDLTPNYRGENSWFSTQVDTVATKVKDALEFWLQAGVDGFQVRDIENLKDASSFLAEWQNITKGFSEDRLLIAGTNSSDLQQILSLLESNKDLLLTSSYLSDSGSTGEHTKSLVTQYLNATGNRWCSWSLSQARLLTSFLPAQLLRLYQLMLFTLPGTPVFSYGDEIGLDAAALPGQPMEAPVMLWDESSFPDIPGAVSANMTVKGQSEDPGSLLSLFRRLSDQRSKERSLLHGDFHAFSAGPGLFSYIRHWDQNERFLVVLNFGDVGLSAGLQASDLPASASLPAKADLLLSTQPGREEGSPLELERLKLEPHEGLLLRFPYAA

Compound | Sodium-dependent [^14C]-L-alanine (0.25 μM) uptake at initial rate of uptake (1 min) (ASCT2) | Sodium-independent [^14C]-L-leucine (0.25 μM) uptake at initial rate of uptake (1 min) (LAT1)
C[C@H](N)C(=O)O [L-alanine] | significantly (P<0.01) reduced | –
CC(C)C[C@H](N)C(=O)O [L-leucine] | – | significantly (P<0.001) reduced
